“Also recorded” adds a separate entry of the source. No end group written: not given here.
Key:
Gardnerella vaginalis = assay: HRP release from Affigel-GV2-HRP beads, ABTS/H2O2 read at 405 nm; format: biochemical; conditions: peptide conjugated to HRP on Affigel beads, 5 minutes
Description: Various bacteria were cultured overnight at 37° C. in NYC III media with 5% CO2. A 10% slurry of Affigel-GV2-HRP in PBS was prepared, and 20 μl was added to six wells of a 96-well filter plate (Millipore Multi-screen HTS). Aliquots of the bacteria, including Gardnerella vaginalis, Pseudomonas aeruginosa, E. coli, Streptococcus pyogenes, Enterococcus faecalis, and Staphylococcus aureus, were added (100 μl) to the beads, and the plate was allowed to sit for 5 minutes at ambient temperature. The supernatants were centrifuged into a low-binding assay plate (Coming 3641), and assays for HRP were then run. […]
Gardnerella vaginalis was detected with the peptide PFINETYAKFC (SEQ ID NO: 1) which was conjugated to HRP. […] Alternatively, the color change can be measured on a plate reader at 405 nm.
(§1) FIG. 11 illustrates the specificity of the GV2 (PFINETYAKFC) (SEQ ID NO: 1) peptide for Gardnerella vaginalis over the course of five minutes when incubated with Gardnerella vaginalis, Staphylococcus aureus, Streptococcus pyogenes, Escherichia coli (E. coli), Pseudomonas aeruginosa, and Enterococcus faecalis. The extracts were filtered through microtiter plate filters and the HRP release was measured at 405 nm with ABTS substrate in the presence of hydrogen peroxide (H202).

E. coli = assay: as above; format: biochemical, Escherichia coli; conditions: 5 minutes at ambient temperature
Description: (§2) Various bacteria were cultured overnight at 37° C. in NYC III media with 5% CO2. A 10% slurry of Affigel-GV2-HRP in PBS was prepared, and 20 μl was added to six wells of a 96-well filter plate (Millipore Multi-screen HTS). Aliquots of the bacteria, including Gardnerella vaginalis, Pseudomonas aeruginosa, E. coli, Streptococcus pyogenes, Enterococcus faecalis, and Staphylococcus aureus, were added (100 μl) to the beads, and the plate was allowed to sit for 5 minutes at ambient temperature. The supernatants were centrifuged into a low-binding assay plate (Coming 3641), and assays for HRP were then run. 2,2′-azino-bis(3-ethylbenzthiazoline-6-sulfonic acid) (ABTS, US Biological) is a commonly used substrate for HRP, giving a water-soluble blue-green color in the presence of HRP and hydrogen peroxide. The formation of the bluegreen color can be followed at 405 nm, with higher slopes indicating the presence of higher amounts of HRP.

[1] = test system: Staphylococcus aureus, Streptococcus pyogenes, Escherichia coli (E. coli), Pseudomonas aeruginosa, and Enterococcus faecalis; assay: HRP release from GV2-HRP beads, specificity against other common pathogens; format: biochemical; conditions: five minutes, FIG. 11
Description: as §2, with “The formation of the bluegreen color can be followed at 405 nm, with higher slopes indicating the presence of higher amounts of HRP.” left out
as §1

C. albicans [2] = assay: G11 peptide detection of C. albicans grown in artificial vaginal fluid; format: biochemical, Candida albicans; conditions: FIG. 23
C. albicans [3] = assay: Identification of peptide targets for C. albicans; format: biochemical, Candida albicans
Description: Clones of green fluorescent protein (GFP) tagged conjugates were used to identify targets in a high throughput screen. Each clone contained a plasmid harboring a gene that contains a polyhistidine tag (6 his), 30 random nucleotides (corresponding to 10 random amino acids), and green fluorescent protein (GFP). On the day before a screen, 864 glowing clones are grown up overnight at 37° C. in deep well microtiter plates (1 ml/well). In the morning, the cultures can be induced with 1 mM IPTG for 1 hour, the cells can be centrifuged for five minutes, and then the media can be decanted. Lysozyme (2 mg/ml) can be added and the cells can be flash frozen 3 times. The samples can be treated with 100 ul/well of DNAse I at 37° C. for 30 minutes to reduce the viscosity by digesting the DNA. An aliquot of the sample can then be transferred to a microtiter filter plate containing 10 μl of nickel-NTA resin. The pipeting of the reagents (IPTG, lysozyme, DNAse I, and beads) can be performed with a Tecan Genesis RSP 100 Robot with Gemini version 4.0 software.
The plates can be filtered by centrifugation three times with PBS to remove unbound material and then the GFP-peptide-bound bead can be incubated with microbial extract for 20 min at 37° C. The sample can be filtered and the flow through fluorescence can be compared with the background from the prior wash. If the microbe has a protease that finds the ideal target, then the release of GFP fluorescence from the bead can be over 100 times greater than the background.
(SEQ ID NO: 8), the sequence QKTTIKKLKH (H2) (SEQ ID NO: 9), the sequence KPKAFLKVGN (R8) (SEQ ID NO: 6), the sequence TPIQIHTILH (SEQ ID NO: 10), the sequence […] (SEQ ID NO: 11), the sequence […] (SEQ ID NO: 12), and the sequence […] (SEQ ID NO: 13).

[4] = test system: unidentified protease from Lactobacillus acidophilus; assay: Peptide-HRP Affigel bead detection of Lactobacillus protease; format: biochemical; conditions: FIG. 12
Description: The two putative peptides were synthesized, coupled to Affigel beads (Bio-Rad, Hercules Calif.), and then labeled with horseradish peroxidase in the following manner:
Peptides were coupled to Affigel beads as described by the manufacturer. Similar results were obtained using small latex beads with carboxylic acid groups. Briefly, 1 mg of peptide was incubated with 1 ml of affigel in conjugation buffer (phosphate buffered saline) for 1-2 hours at room temperature. For the small latex beads functionalized with carboxylic acids, the peptides/proteins are coupled with EDC (1-ethyl-3-[3 dimethylaminopropyl] carbodiimide hydrochloride). The beads are either used immediately or conjugated further with HRP-maleimide or stored at 4° C. under a cushion of 2% trehalose or 2% sucrose.
HRP is conjugated to sulfo-SMCC though a reactive primary amine group. The reaction is performed for 1 hour in the presence of 50 mM sodium phosphate buffer (pH 7.4). The functionalized HRP is removed from the unbound sulfo-SMCC by gel filtration using P6 Biogel P polyacrylamide beads, Biorad (Hercules, Calif.) or Sephadex G50 beads (Amersham Biosciences, Piscataway, N.J.). The HRP-maleimide elutes in the void volume, whereas the free sulfo-SMCC elutes very slowly from the column. The HRP binds hemin, and, thus, has a brown color that can be used to quickly identify the void volume containing the HRP-maleimide. […]

## PFINETYAKFC (also: Affigel bead and HRP conjugate) [GV2]
Gardnerella vaginalis
  HRP release / color change with H2O2 and ABTS substrate: quite specific for G. vaginalis; also recorded: turns blue; also recorded: detects unidentified protease from G. vaginalis
Gardnerella vaginalis; listed as PFINETYAKFC
  HRP release / color change with H2O2 and ABTS substrate: color change was observed quickly
E. coli
  HRP release signal (ABTS, 405 nm): small amount of signal
[1]
  color change (HRP release, ABTS, 405 nm) with other common pathogens: not in the presence of other common pathogens

## TPIQIHTILH (Peptide Substrate of Candida spp.) [G11]
C. albicans [2]
  ability to detect C. albicans: able to detect C. albicans; also recorded: able to detect Candida albicans
C. albicans [3]
  identified as peptide target for C. albicans: peptide targets for C. albicans

## ITTTSSKHEHC (Peptide Substrate of Lactobacillus acidophilus) [peptide substrate detecting a protease from Lactobacillus]
[4]
  detection of protease from Lactobacillus: detects an unknown protease; also recorded: detects an unidentified protease

Reference: patent US20070128589A1, “Substrates, sensors, and methods for assessing conditions in females” (priority 2005, published 2007)
